Several values for one entry are separate records, joined by “and”; a condition that tells them apart may be missing. Equal entries are not always repeated.
Assays:
[1] = test system: T. gondii β-gal tachyzoites; test: Primary screening: T. gondii β-gal proliferation in HFF monolayers at 0.1 and 1 µM (CPRG readout); format: cell-based, Toxoplasma gondii; settings: tachyzoites cultured in HFF, 72 h, relative to DMSO control
Method: (§1) The screening cascade for the compounds was described in former studies. All compounds were prepared as 1 mM stock solutions from powder, in dimethyl sulfoxide (DMSO, Sigma, St. Louis, MO, USA). For in vitro activity and cytotoxicity assays, HFF were seeded at 5 × 10^3/well and allowed to grow to confluence in phenol-red free culture medium at 37 °C and 5% CO2. T. gondii tachyzoites were released from host cells, and HFF monolayers were infected with freshly isolated parasites (1 × 10^3/well), and compounds were added concomitantly with infection.
In the primary screening, HFF monolayers infected with T. gondii β-gal were treated with 0.1 and 1 µM of each compound, or the corresponding concentration of DMSO (0.01 or 0.1%, respectively) as controls and were incubated for 72 h at 37 °C/5% CO2 as previously described.
(§2) To measure the activity of the tested compound on T. gondii β-gal parasites, after a period of 72 h of culture at 37 °C/5% CO2, the culture medium was aspirated, and cells were permeabilized by adding 90 μL PBS (phosphate buffered saline) with 0.05% Triton X-100. Next, 10 μL of 5 mM chlorophenolred-β-D-galactopyranoside (CPRG; Roche Diagnostics, Rotkreuz, Switzerland, substrate for the β-galactosidase) in PBS were added. Release of chlorophenol red was measured at 570 nm using an EnSpire® multimode plate reader (PerkinElmer, Inc., Waltham, MA, USA). A 100% proliferation of T. gondii β-gal was assigned to control parasites treated only with DMSO. For the primary screening at 0.1 and 1 μM, the activity was measured as the release of chlorophenol red over time and was calculated as percentage from the respective DMSO treated control, which represented 100% of T. gondii β-gal growth.

[2] = test system: T. gondii β-gal tachyzoites; test: Dose-response study (IC50) against T. gondii β-gal tachyzoites; format: cell-based, Toxoplasma gondii; settings: 8 serial concentrations 0.007-1 µM, 72 h
Method: as §1
For the dose-response study (IC50 values), measurements for T. gondii β-gal were performed. The selected compounds were added concomitantly with infection in 8 serial concentrations 0.007, 0.01, 0.03, 0.06, 0.12, 0.25, 0.5, and 1 μM.
as §2
For the IC50 assays, the activity measured as the release of chlorophenol red over time was proportional to the number of live parasites down to 50 per well as determined in pilot assays. IC50 values were calculated after the logit-log-transformation of relative growth and subsequent regression analysis. All calculations were performed using the corresponding software tool contained in the Excel software package (Microsoft, Redmond, WA, USA).

[3] = test system: human foreskin fibroblasts (HFF); test: Cytotoxicity in non-infected HFF by alamarBlue assay; format: cell-based
Method: as §1
Cytotoxicity assays using uninfected confluent HFF host cells were performed by the alamarBlue assay as previously reported. Confluent HFF monolayers in 96 well-plates were exposed to 0.1, 1, and 2.5 μM of each compound. Non-treated HFF as well as DMSO controls (0.01%, 0.1%, and 0.25%) were included. After 72 h of incubation at 37 °C/5% CO2, the medium was removed, and the plates were washed once with PBS. Resazurin suspended in PBS to a final concentration of 0.01 g/L was added to each well (200 μL/well). Fluorescence was measured at excitation wavelength 530 nm and emission wavelength […] using an EnSpire® multimode plate reader (PerkinElmer, Inc, Waltham, MA, USA). The cytotoxicity values were calculated as percentage of the respective DMSO control, which represented 100% of HFF viability.

[4] = 0.1 µM, non-infected HFF, 72 h, relative to DMSO control, triplicate
[5] = 2.5 µM, control 0.25% DMSO = 100%, six replicates

SMILES	T. gondii β-gal Growth (%) ([1]; 0.1 µM)	T. gondii β-gal Growth (%) ([1]; 1 µM)	IC50 [2] [µM]	HFF Viability (%) [3, 4] [%]	HFF Viability (%) [3, 5]	HFF Viability (%) ([3]; 0.1 µM)	HFF Viability (%) ([3]; 1 µM)	HFF Viability (%) ([3]; 2.5 µM)	HFF Viability (%) ([3]; 1 µM, non-infected HFF, 72 h, relative to DMSO control, triplicate)
C#CCCCC(=O)Nc1ccc([S+]2[Ru-]3[S+](Cc4ccc(C(C)(C)C)cc4)[Ru-]2[S+]3Cc2ccc(C(C)(C)C)cc2)cc1.Cc1ccc(C(C)C)cc1.Cc1ccc(C(C)C)cc1.[Cl-] (centres unmarked) [Compound 5]	21 ± 2	0 ± 0	0.038	101 ± 0	34%				
C#Cc1ccc(C(=O)Nc2ccc([S+]3[Ru-]4[S+](Cc5ccc(C(C)(C)C)cc5)[Ru-]3[S+]4Cc3ccc(C(C)(C)C)cc3)cc2)cc1.Cc1ccc(C(C)C)cc1.Cc1ccc(C(C)C)cc1.[Cl-] (centres unmarked) [Compound 6]	112 ± 1	6 ± 1	0.288	95 ± 1	17%				
C#CCOC(=O)Cc1ccc([S+]2[Ru-]3[S+](Cc4ccc(C(C)(C)C)cc4)[Ru-]2[S+]3Cc2ccc(C(C)(C)C)cc2)cc1.Cc1ccc(C(C)C)cc1.Cc1ccc(C(C)C)cc1.[Cl-] (centres unmarked) [Compound 7]	19 ± 1	0 ± 0	0.289	100 ± 2	51%				
CC(C)(C)c1ccc(C[S+]2[Ru-]3[S+](Cc4ccc(C(C)(C)C)cc4)[Ru-]2[S+]3c2ccccc2CN=[N+]=[N-])cc1.Cc1ccc(C(C)C)cc1.Cc1ccc(C(C)C)cc1.[Cl-] (centres unmarked) [Compound 9]		1 ± 1	0.048	96 ± 1	11%				
CC(C)(C)c1ccc(C[S+]2[Ru-]3[S+](Cc4ccc(C(C)(C)C)cc4)[Ru-]2[S+]3c2ccc(N=[N+]=[N-])cc2)cc1.Cc1ccc(C(C)C)cc1.Cc1ccc(C(C)C)cc1.[Cl-] (centres unmarked) [Compound 10]		1 ± 0	0.064	94 ± 1	38%				
Nc1ncnc2c1ncn2CCO [Compound 14A, 9-(2-hydroxyethyl)adenine]	104 ± 2	75 ± 11							
CC(C)(C)c1ccc(C[S+]2[Ru-]3[S+](Cc4ccc(C(C)(C)C)cc4)[Ru-]2[S+]3c2ccccc2Cn2cc(Cn3ccc(=O)[nH]c3=O)nn2)cc1.Cc1ccc(C(C)C)cc1.Cc1ccc(C(C)C)cc1.[Cl-] (centres unmarked) [Compound 19]			0.46	93 ± 2	50%				
Cc1ccc(C(C)C)cc1.Cc1ccc(C(C)C)cc1.Cc1cn(Cc2cn(Cc3ccccc3[S+]3[Ru-]4[S+](Cc5ccc(C(C)(C)C)cc5)[Ru-]3[S+]4Cc3ccc(C(C)(C)C)cc3)nn2)c(=O)[nH]c1=O.[Cl-] (centres unmarked) [Compound 20]	102 ± 0	1 ± 0	0.363			100 ± 2	71 ± 2	39	
CC(C)(C)c1ccc(C[S]2[Ru]3[S](Cc4ccc(C(C)(C)C)cc4)[Ru+]2[S]3c2ccccc2Cn2cc(Cn3ccc(N)nc3=O)nn2)cc1.Cc1ccc(C(C)C)cc1.Cc1ccc(C(C)C)cc1.[Cl-] [Compound 21]		0 ± 0	0.046			109 ± 2	89 ± 1	38	
CC(C)(C)c1ccc(C[S]2[Ru]3[S](Cc4ccc(C(C)(C)C)cc4)[Ru+]2[S]3c2ccccc2Cn2cc(Cn3cnc4c(N)ncnc43)nn2)cc1.Cc1ccc(C(C)C)cc1.Cc1ccc(C(C)C)cc1.[Cl-] [Compound 22]	79 ± 3	1 ± 0	0.108			102 ± 0	77 ± 2	52	
CC(C)(C)c1ccc(C[S]2[Ru]3[S](Cc4ccc(C(C)(C)C)cc4)[Ru+]2[S]3c2ccc(-n3cc(Cn4ccc(=O)[nH]c4=O)nn3)cc2)cc1.Cc1ccc(C(C)C)cc1.Cc1ccc(C(C)C)cc1.[Cl-] [Compound 23]			0.426	100 ± 1	64%				
CC(C)(C)c1ccc(C[S]2[Ru]3[S](Cc4ccc(C(C)(C)C)cc4)[Ru+]2[S]3c2ccc(-n3cc(Cn4ccc(N)nc4=O)nn3)cc2)cc1.Cc1ccc(C(C)C)cc1.Cc1ccc(C(C)C)cc1.[Cl-] [Compound 25]	82 ± 6					94 ± 9	91 ± 8		
CC(C)(C)c1ccc(C[S]2[Ru]3[S](Cc4ccc(C(C)(C)C)cc4)[Ru+]2[S]3c2ccc(-n3cc(Cn4cnc5c(N)ncnc54)nn3)cc2)cc1.Cc1ccc(C(C)C)cc1.Cc1ccc(C(C)C)cc1.[Cl-] [Compound 26]	109 ± 6		0.178			109 ± 2	76 ± 0	45	
NC(=O)c1ccc(-c2cn(Cc3cc(=O)[nH]c(=O)[nH]3)nn2)cc1 [Compound 29]						101 ± 1			
CC(C)(C)c1ccc(C[S]2[Ru]3[S](Cc4ccc(C(C)(C)C)cc4)[Ru+]2[S]3c2ccc(CC(=O)OCc3cn(Cc4cc(=O)[nH]c(=O)[nH]4)nn3)cc2)cc1.Cc1ccc(C(C)C)cc1.Cc1ccc(C(C)C)cc1.[Cl-] [Compound 30]			0.659	114 ± 0	97%				
CC(C)(C)c1ccc(C[S]2[Ru]3[S](Cc4ccc(C(C)(C)C)cc4)[Ru+]2[S]3c2ccc(CC(=O)NCc3cn(Cc4cc(=O)[nH]c(=O)[nH]4)nn3)cc2)cc1.Cc1ccc(C(C)C)cc1.Cc1ccc(C(C)C)cc1.[Cl-] [Compound 31]						99 ± 3			
CC(C)(C)c1ccc(C[S]2[Ru]3[S](Cc4ccc(C(C)(C)C)cc4)[Ru+]2[S]3c2ccccc2Cn2cc(-c3ccccc3)nn2)cc1.Cc1ccc(C(C)C)cc1.Cc1ccc(C(C)C)cc1.[Cl-] [Compound 34]	7 ± 0	1 ± 0	0.092	96 ± 1	highly toxic and 3%				70 ± 1
CC(C)(C)c1ccc(C[S]2[Ru]3[S](Cc4ccc(C(C)(C)C)cc4)[Ru+]2[S]3c2ccccc2Cn2cc(-c3ccc(CO)cc3)nn2)cc1.Cc1ccc(C(C)C)cc1.Cc1ccc(C(C)C)cc1.[Cl-] [Compound 35]	1 ± 0	0 ± 0				89 ± 0			
CC(C)(C)c1ccc(C[S]2[Ru]3[S](Cc4ccc(C(C)(C)C)cc4)[Ru+]2[S]3c2ccccc2Cn2cc(CO)nn2)cc1.Cc1ccc(C(C)C)cc1.Cc1ccc(C(C)C)cc1.[Cl-] [Compound 36]		0 ± 0	0.111	115 ± 1	low toxicity and medium toxicity and 77%				

— paper PMC9738179, “New Nucleic Base-Tethered Trithiolato-Bridged Dinuclear Ruthenium(II)-Arene Compounds: Synthesis and Antiparasitic Activity” (Molecules, 2022)
